Measured values from patent publication US11992297B2, “Monitoring method of heart rate for toxicity test using high-speed digital holography” (KOREA RESEARCH INSTITUTE OF STANDARDS AND SCIENCE, priority 2020, dated 2024).
Read-outs that look alike come from different tables or passages of the source.

Legend:
water flea [1] = conditions: for change of heart rate (final RHR) relative to the original heart rate (OHR) / decrease of heart rate (final RHR) relative to the original heart rate (OHR): FIG. 7 (C); for decrease of heart rate (final RHR) relative to the original heart rate (OHR): normalized for initial RHR; for relaxation heart rate (RHR) 0 hr / relaxation heart rate (RHR) 24 hr: average ± SD; for RHR normalization relative to 0 hr: 24 hr relative to 0 hr; for heart rate decrease after 24 hours (normalized average RHR): FIG. 8 (B),(C)
Protocol: In the individual response evaluation apparatus, an extra-axial digital holography method was used to take a hologram of the water flea with a CCD camera.
The heart rate of the water flea was analyzed by the reconstructed time-resolved phase distributions, from the heart rate signal obtained by the method.
A Fourier spectrum method was used for evaluating periodic characteristics in heart rate analysis. In (C) of FIG. 5, a one-dimensional Fourier spectrum method was used for each pixel of 1000 frame sets to calculate a two-dimensional frequency distribution of the water flea.
2 hours after the observation, 19 mL of hydrogen peroxide having concentrations of 0.00 mM, 0.03 mM, and 0.06 mM, respectively was each mixed for each experiment to perform the experiment repeatedly so that the water flea is exposed to the hydrogen peroxide. At this time, in a negative control group of 0.00 mM treatment, 10 mL of an M4 medium was further mixed for unifying volume.
Upon observation, the heart rate analysis was performed by dividing the section into those before and after exposure to hydrogen peroxide.
In order to express the heart rate trend of (B) of FIG. 7, in (A) of FIG. 7, an original heart rate (OHR) was flattened every 30 minutes by a moving average method.

water flea [2] = conditions: 0.06 mM-treated test group versus 0.03 mM-treated group; FIG. 8 (d)
[3] = 0.03 mM hydrogen peroxide, Group (N=3)
[4] = 0.03 mM hydrogen peroxide, specimen #4
[5] = 0.03 mM hydrogen peroxide, specimen #5
[6] = 0.03 mM hydrogen peroxide, specimen #6
[7] = 0.06 mM hydrogen peroxide, Group (N=3)
[8] = 0.06 mM hydrogen peroxide, specimen #7
[9] = 0.06 mM hydrogen peroxide, specimen #8
[10] = 0.06 mM hydrogen peroxide, specimen #9

OO [hydrogen peroxide]
change of heart rate (final RHR) relative to the original heart rate (OHR) (water flea [1]; 0.03 mM hydrogen peroxide): −13 BPM
decrease of heart rate (final RHR) relative to the original heart rate (OHR) (water flea [1]; 0.03 mM hydrogen peroxide): 3.3%
relaxation heart rate (RHR) 0 hr (water flea [1]; [3]): 366.81 ± 20.43 BPM
RHR normalization relative to 0 hr (water flea [1]; [3]): 92.84 ± 5.60%
relaxation heart rate (RHR) 24 hr (water flea [1]; [3]): 340.33 ± 21.98 BPM
relaxation heart rate (RHR) 0 hr (water flea [1]; [4]): 363.22 ± 12.11 BPM
RHR normalization relative to 0 hr (water flea [1]; [4]): 90.42 ± 4.74%
relaxation heart rate (RHR) 24 hr (water flea [1]; [4]): 328.43 ± 18.01 BPM
relaxation heart rate (RHR) 0 hr (water flea [1]; [5]): 350.78 ± 20.23 BPM
RHR normalization relative to 0 hr (water flea [1]; [5]): 96.72 ± 1.78%
relaxation heart rate (RHR) 24 hr (water flea [1]; [5]): 339.28 ± 6.54 BPM
relaxation heart rate (RHR) 0 hr (water flea [1]; [6]): 486.43 ± 6.63 BPM
RHR normalization relative to 0 hr (water flea [1]; [6]): 91.42 ± 6.94%
relaxation heart rate (RHR) 24 hr (water flea [1]; [6]): 353.28 ± 27.98 BPM
heart rate decrease after 24 hours (normalized average RHR) (water flea [1]; 0.03 mM-treated test group): 7.16%
change of heart rate (final RHR) relative to the original heart rate (OHR) (water flea [1]; 0.06 mM hydrogen peroxide): −109 BPM
decrease of heart rate (final RHR) relative to the original heart rate (OHR) (water flea [1]; 0.06 mM hydrogen peroxide): 22.7%
relaxation heart rate (RHR) 0 hr (water flea [1]; [7]): 383.81 ± 12.99 BPM
RHR normalization relative to 0 hr (water flea [1]; [7]): 73.96 ± 5.61%
relaxation heart rate (RHR) 24 hr (water flea [1]; [7]): 279.05 ± 12.71 BPM
relaxation heart rate (RHR) 0 hr (water flea [1]; [8]): 370.07 ± 25.38 BPM
RHR normalization relative to 0 hr (water flea [1]; [8]): 74.26 ± 4.33%
relaxation heart rate (RHR) 24 hr (water flea [1]; [8]): 274.82 ± 16.01 BPM
relaxation heart rate (RHR) 0 hr (water flea [1]; [9]): 378.43 ± 15.41 BPM
RHR normalization relative to 0 hr (water flea [1]; [9]): 79.13 ± 3.88%
relaxation heart rate (RHR) 24 hr (water flea [1]; [9]): 299.47 ± 14.70 BPM
relaxation heart rate (RHR) 0 hr (water flea [1]; [10]): 383.90 ± 13.02 BPM
RHR normalization relative to 0 hr (water flea [1]; [10]): 68.47 ± 1.93%
relaxation heart rate (RHR) 24 hr (water flea [1]; [10]): 262.87 ± 7.41 BPM
heart rate decrease after 24 hours (normalized average RHR) (water flea [1]; 0.06 mM-treated test group): 25.97%
reactive oxygen species (ROS) level, times higher than the 0.03 mM-treated group (water flea [2]): 7.8 times
